Converted amounts (≈) assume the structure as drawn. Read-outs that look alike come from different tables or passages of the source.
What was measured:
[1] = renal cell carcinoma patients; cited from earlier work
[2] = cited from earlier work
[3] = Stability of solid dispersions at high temperature of 60° C. (related substances by HPLC); format: physicochemical
Experimental: The SD prepared above was sealed in an aluminum foil bag, placed in a high temperature of 60° C. for investigation for 10 days and 30 days, and related substances were detected by HPLC method.

[4] = Solubility test of solid dispersions (pH 1.0 hydrochloric acid, pH 6.8 phosphate buffer, FaSSGF, FaSSIF); format: physicochemical; details: main drug:carrier 1:3; for Solubility: pH 1.0 hydrochloric acid solution, 37° C., listed as SLFN
Experimental: An appropriate amount of solid dispersion (SD) was added to a pH 1.0 hydrochloric acid solution and a pH 6.8 phosphate buffer solution, while keeping the SD in excess, and shaken at 37° C. in a shaker at 300 rpm.

[5] = Solubility of sorafenib in different organic solvents; format: physicochemical; details: for solubility at 30 min / solubility at 24 h: organic solvent, 37 °C, organic solvent or mixture, thermodynamic from solid
[6] = Stability of sorafenib in different organic solvents (related substances by HPLC); format: physicochemical
[7] = healthy volunteer, oral 100 mg 14C radiolabeled sorafenib; cited from earlier work
[8] = acetone-ethanol 1:2, standing 30 min
[9] = acetone-ethanol 1:2, standing 24 h
[10] = dichloromethane-acetone 3:1, standing 30 min
[11] = dichloromethane-acetone 3:1, standing 24 h
[12] = methanol-dichloromethane 1:2, standing 30 min
[13] = methanol-dichloromethane 1:2, standing 24 h
[14] = methanol-dichloromethane 1:3, standing 30 min
[15] = methanol-dichloromethane 1:3, standing 24 h
[16] = methanol-dichloromethane 1:4, standing 30 min
[17] = methanol-dichloromethane 1:4, standing 24 h

Question: Which results are given for `CNC(=O)c1cc(Oc2ccc(NC(=O)Nc3ccc(Cl)c(C(F)(F)F)c3)cc2)ccn1` [sorafenib, 4-{4-[3-(4-chloro-3-trifluoromethyl-phenyl)acylurea]-phenoxy}-pyridine-2-carboxylic acid methylamine]?
Answer: blood concentration of patients with serious adverse reactions [1]: more than 10,000 ng/ml; incidence of diarrhea [1]: 76.5%; incidence of fatigue [1]: 55.32%; incidence of hand-foot syndrome [1]: 68.99%; Solubility ([2]; pH1): 0.0034 mg/mL (≈ 0.00731 mM); Solubility ([2]; pH4.5): 0.00013 mg/mL (≈ 0.00028 mM); Related substances: CTF-aniline ([3]; 0 day): Not detected; Related substances: Maximum single impurity ([3]; 0 day): 0.03%; Related substances: Total impurity ([3]; 0 day): 0.09%; Related substances: CTF-aniline ([3]; 10 days): Not detected; Related substances: Maximum single impurity ([3]; 10 days): 0.04%; Related substances: Total impurity ([3]; 10 days): 0.10%; Related substances: CTF-aniline ([3]; 30 days): Not detected; Related substances: Maximum single impurity ([3]; 30 days): 0.05%; Related substances: Total impurity ([3]; 30 days): 0.10%; Solubility ([4]; 0.5 h): <0.09 µg/mL; Solubility ([4]; 2 h): <0.09 µg/mL; Solubility ([4]; 4 h): <0.09 µg/mL; solubility at 0.5 h ([4]; phosphate buffer, 37 °C, pH 6.8, aqueous buffer, thermodynamic from solid, pH 6.8 phosphate buffer solution, 0.5 h): < 0.09 µg/mL; solubility at 2 h ([4]; phosphate buffer, 37 °C, pH 6.8, aqueous buffer, thermodynamic from solid, pH 6.8 phosphate buffer solution, 2 h): < 0.09 µg/mL; solubility at 4 h ([4]; phosphate buffer, 37 °C, pH 6.8, aqueous buffer, thermodynamic from solid, pH 6.8 phosphate buffer solution, 4 h): < 0.09 µg/mL; Solubility ([5]; acetone-ethanol 1:2, 30 min, 37° C.): 18.51 mg/mL (≈ 39.8 mM); Solubility ([5]; acetone-ethanol 1:2, 24 h, 37° C.): 18.48 mg/mL (≈ 39.8 mM); Solubility (visual inspection) ([5]; acetone-ethanol 1:3 and 1:5, 30 min): Less API dissolved by visual; Solubility (visual inspection) ([5]; dichloromethane-acetone 1:1 and 2:1, 30 min): Less API dissolved by visual; Solubility ([5]; methanol-dichloromethane 1:1, 30 min, 37° C.): 14.28 mg/mL (≈ 30.7 mM); solubility at 30 min ([5]; dichloromethane-acetone 3:1, 30 min, 37° C.): 3.6 mg/mL (≈ 7.74 mM); solubility at 24 h ([5]; dichloromethane-acetone 3:1, 24 h, 37° C.): 4.04 mg/mL (≈ 8.69 mM); solubility at 30 min ([5]; isopropanol, 30 min): 2.91 mg/mL (≈ 6.26 mM); solubility at 24 h ([5]; isopropanol, 24 h): 2.81 mg/mL (≈ 6.05 mM); solubility at 30 min ([5]; methanol-dichloromethane 1:0.5 (v/v), 30 min, 37° C.): 8.34 mg/mL (≈ 17.9 mM); solubility at 24 h ([5]; methanol-dichloromethane 1:0.5 (v/v), 24 h, 37° C.): 19.2 mg/mL (≈ 41.2 mM); solubility at 24 h ([5]; methanol-dichloromethane 1:1, 24 h, 37° C.): 24.2 mg/mL (≈ 52.1 mM); solubility at 30 min ([5]; methanol-dichloromethane 1:2, 30 min, 37° C.): 20.9 mg/mL (≈ 45 mM); solubility at 24 h ([5]; methanol-dichloromethane 1:2, 24 h, 37° C.): 36.2 mg/mL (≈ 77.8 mM); solubility at 30 min ([5]; methanol-dichloromethane 1:3, 30 min, 37° C.): 36.4 mg/mL (≈ 78.2 mM); solubility at 24 h ([5]; methanol-dichloromethane 1:3, 24 h, 37° C.): 36.4 mg/mL (≈ 78.4 mM); solubility at 30 min ([5]; methanol-dichloromethane 1:4, 30 min, 37° C.): 31.3 mg/mL (≈ 67.4 mM); solubility at 24 h ([5]; methanol-dichloromethane 1:4, 24 h, 37° C.): 36.3 mg/mL (≈ 78.1 mM); Related substances RRT 0.08 ([6]; API, no solvent): 0.008%; Related substances RRT 0.30 ([6]; API, no solvent): 0.029%; Related substances RRT 0.40 ([6]; API, no solvent): 0.006%; Related substances RRT 0.55 ([6]; API, no solvent): 0.028%; Related substances RRT 0.92 ([6]; API, no solvent): 0.054%; Related substances RRT 1.00 ([6]; API, no solvent): 99.864%; Related substances RRT 0.05 [6, 8]: 4.314%; Related substances RRT 0.08 [6, 8]: 0.011%; Related substances RRT 0.30 [6, 8]: 0.029%; Related substances RRT 0.40 [6, 8]: 0.008%; Related substances RRT 0.55 [6, 8]: 0.025%; Related substances RRT 0.92 [6, 8]: 0.047%; Related substances RRT 1.00 [6, 8]: 95.562%; Related substances RRT 0.05 [6, 9]: 3.946%; Related substances RRT 0.08 [6, 9]: 0.010%; Related substances RRT 0.30 [6, 9]: 0.033%; Related substances RRT 0.40 [6, 9]: 0.007%; Related substances RRT 0.55 [6, 9]: 0.020%; Related substances RRT 0.92 [6, 9]: 0.035%; Related substances RRT 1.00 [6, 9]: 95.893%; Related substances RRT 0.05 [6, 10]: 12.979%; Related substances RRT 0.08 [6, 10]: 2.491%; Related substances RRT 0.30 [6, 10]: 0.020%; Related substances RRT 0.35 [6, 10]: 0.282%; Related substances RRT 0.92 [6, 10]: 0.039%; Related substances RRT 1.00 [6, 10]: 84.196%; Related substances RRT 0.05 [6, 11]: 14.191%; Related substances RRT 1.00 [6, 11]: 85.157%; Related substances RRT 0.03 ([6]; isopropanol, standing 30 min): 0.161%; Related substances RRT 1.00 ([6]; isopropanol, standing 30 min): 99.839%; Related substances RRT 1.00 ([6]; isopropanol, standing 24 h): 99.365%; Related substances RRT 0.08 [6, 12]: 0.011%; Related substances RRT 0.30 [6, 12]: 0.030%; Related substances RRT 0.40 [6, 12]: 0.008%; Related substances RRT 0.55 [6, 12]: 0.031%; Related substances RRT 0.92 [6, 12]: 0.037%; Related substances RRT 1.00 [6, 12]: 99.870%; Related substances RRT 0.08 [6, 13]: 0.013%; Related substances RRT 0.30 [6, 13]: 0.035%; Related substances RRT 0.40 [6, 13]: 0.009%; Related substances RRT 0.55 [6, 13]: 0.028%; Related substances RRT 0.92 [6, 13]: 0.049%; Related substances RRT 1.00 [6, 13]: 99.853%; Related substances RRT 0.08 [6, 14]: 0.015%; Related substances RRT 0.30 [6, 14]: 0.029%; Related substances RRT 0.40 [6, 14]: 0.006%; Related substances RRT 0.55 [6, 14]: 0.026%; Related substances RRT 0.92 [6, 14]: 0.050%; Related substances RRT 1.00 [6, 14]: 99.861%; Related substances RRT 0.08 [6, 15]: 0.012%; Related substances RRT 0.30 [6, 15]: 0.035%; Related substances RRT 0.40 [6, 15]: 0.009%; Related substances RRT 0.55 [6, 15]: 0.025%; Related substances RRT 0.92 [6, 15]: 0.037%; Related substances RRT 1.00 [6, 15]: 99.872%; Related substances RRT 0.08 [6, 16]: 0.013%; Related substances RRT 0.30 [6, 16]: 0.028%; Related substances RRT 0.40 [6, 16]: 0.007%; Related substances RRT 0.55 [6, 16]: 0.024%; Related substances RRT 0.92 [6, 16]: 0.034%; Related substances RRT 1.00 [6, 16]: 99.884%; Related substances RRT 0.08 [6, 17]: 0.013%; Related substances RRT 0.30 [6, 17]: 0.028%; Related substances RRT 0.40 [6, 17]: 0.008%; Related substances RRT 0.55 [6, 17]: 0.032%; Related substances RRT 0.92 [6, 17]: 0.045%; Related substances RRT 1.00 [6, 17]: 99.862%; change in related substances ([6]; methanol-dichloromethane (1:3), 30 min and 24 h): no significant change in related substances; administered dose excreted through feces [7]: 77%; prototype drug excreted through feces [7]: above 51%

— US20230310393A1 (Tianjin Creatron Biotechnology Co., Ltd., priority 2020, published 2023)
